Experiment: Oxygen radical absorbance capacity (ORACFL-LIPO) assay with fluorescein probe, RMCD, AAPH, Trolox standard
Conditions: for Antioxidant activity (ORAC), μmole Trolox equivalent per gram sample: 75 mM phosphate buffer pH 7.4, 7% RMCD; for Antioxidant activity (ORAC) per 400 IU: μmole TE/g × total weight in grams of formula which gives 400 IU
Protocol: The antioxidant activities of natural d-alpha-tocopherol, mixed tocopherols and tocotrienols, and formulations comprising all forms of vitamin E were determined employing an improved oxygen radical absorbance capacity (ORAC) assay using fluorescein (FL) as a fluorescent probe, randomly methylated β-cyclodextrin (RMCD) to enhance solubility of lipophilic antioxidants in aqueous medium, 2,2′-azobis (2-amidino-propane) dihydrochloride (AAPH) as peroxyl radical generator, and Trolox as a standard in 75 mM phosphate buffer.
(§1) The antioxidant activity, commonly referred to as oxygen radical absorbance capacity (ORAC), of a lipophilic substance was measured employing a newly developed assay. This assay is based on the use of: (a) fluorescein (FL) as the fluorescent probe, (b) randomly methylated β-cyclodextrin (RMCD) as a molecular host to enhance the solubility of lipophilic antioxidants in aqueous solution, (c) 2,2′-azobis (2-amidino-propane) dihydrochloride (AAPH) as a peroxyl radical generator, and (d) 6-hydroxy-2,5,7,8-tetramethyl-2-carboxylic acid (Trolox) as a standard in 75 mM phosphate buffer (pH 7.4).
The antioxidant activities of vitamin E formulations comprising all compounds of tocopherols and tocotrienols were determined employing an improved oxygen radical absorbance capacity (abbreviated ORACFL-LIPO) assay using fluorescein (FL) as the fluorescent probe, randomly methylated β-cyclodextrin (RMCD) as the water solubility enhancer for lipophilic antioxidants in 75 mM phosphate buffer (pH 7.4).
In the presence ofperoxyl radicals derived from AAPH, the indicator FL gradually loses its fluorescence. The antioxidant activity of a substance is measured by its ability to retain the fluorescence of FL in the presence of peroxyl radicals. The net protection of FL was measured as previously described by Ou et al.
All other standards were commercially available form Sigma or Aldrich. All ORAC analyses were performed on a COBAS FARA II analyzer (Roche Diagnostic System Inc., Branchburg, NJ) using an excitation wavelength of 493 nm and an emission filter of 515 nm.
Approximately 0.5 g of sample was dissolved in 20 mL of acetone. An aliquot of sample solution was appropriately diluted with 7% RMCD solvent (w/v) made in a 50% acetone-water mixture (v/v) and was shaken for 1 hr at room temperature on an orbital shaker at 400 rpm. The sample solution was ready for analysis after further dilution with 7% RMCD solvent.
The automated ORAC assay was carried out on a COBAS FARA II spectrofluorometer centrifugal analyzer as previously described (9). With the exception of samples and Trolox standards, which were made in 7% RMCD solvent, all other reagents were prepared at 75 mM phosphate buffer (pH 7.4). In the final assay mixture (0.4 mL total volume), FL (6.3×10^−8 M) was used as a target of free radical attack and AAPH (1.28×10^−2 M) was used as a peroxyl radical generator. 7% RMCD was used as the blank, and Trolox (12.5, 25,50, and 100 μM) was used as the control standard. The analyzer was programmed to record the fluorescence of FL every minute after the addition of AAPH. All measurements were expressed relative to the initial reading. Final results were calculated using the differences of areas under the FL decay curves between the blank and a sample.
as §1, with “6-hydroxy-2,5,7,8-tetrmethyl-2-carboxylic” for “6-hydroxy-2,5,7,8-tetramethyl-2-carboxylic”
In the presence of peroxyl radicals derived from AAPH, the indicator FL gradually loses its fluorescence. […]

Structure (SMILES) | Antioxidant activity (ORAC), μmole Trolox equivalent per gram sample (Table 1) | Antioxidant activity (ORAC) in words, relative to d-alpha-tocopherol (qualitative statement) | Antioxidant activity (ORAC), μmole Trolox equivalent per gram sample (Table 1, listed as alpha-tocopherol (87%)) | Antioxidant activity (ORAC), μmole Trolox equivalent per gram sample (Table 1, listed as d-alpha-tocopherol (87%)) | Antioxidant activity (ORAC) per 400 IU (Table 1) [μmole TE/400IU] | Antioxidant activity (ORAC), μmole Trolox equivalent per gram sample (Table 2) | Antioxidant activity (ORAC) per 400 IU (Table 2) [μmole TE/400IU]
CC(=O)Oc1c(C)c(C)c2c(c1C)CCC(C)(CCC[C@H](C)CCC[C@H](C)CCCC(C)C)O2 (stereo partly drawn) [Alpha-Tocopherol Acetate] | 14 ± 10 μmole TE/g | no antioxidant activity | – | – | – | – | –
Cc1c(C)c2c(c(C)c1O)CC[C@@](C)(CCC[C@H](C)CCC[C@H](C)CCCC(C)C)O2 [d-alpha-Tocopheral (87%), d-alpha-tocopherol] | 1,293 ± 64 μmole TE/g | – | 1,293 μmole TE/g | 1,293 μmole TE/g | 398 | 1,293 ± 80 μmole TE/g | 413

Source: US7329688B2, “Natural vitamin E compositions with superior antioxidant potency” (Soft Gel Technologies, Inc., priority 2002, dated 2008)
